System: pulmonary adenocarcinoma
Assay: clinical course under other anticancer drugs in the lung cancer cases
Format: in vivo, human
From the text: Each case is disclosed in detail below.

Row | Structure (SMILES) | side effects (case 2, oral dosing from September to May 2014, no ketogenic diet) | adverse event due to erlotinib (case 4, August 2014, on the head) | primary tumor (primary lesion) under erlotinib administration (one patient who left the ketogenic diet after the 3 month evaluation)
1 | COc1cc2ncnc(Nc3ccc(F)c(Cl)c3)c2cc1OCCCN1CCOCC1 [Iressa, gefitinib] | not found | – | –
2 | C#Cc1cccc(Nc2ncnc3cc(OCCOC)c(OCCOC)cc23)c1 [erlotinib] | – | eczema | contraction

Reference: patent publication US20180214410A1, “Development of Dietary Therapy in Cancer” (Osaka University, priority 2015, published 2018)
